Our source for the IC50, Infected and inhibition values is ChEMBL document CHEMBL1134372, “Bisphosphonates inhibit the growth of Trypanosoma brucei, Trypanosoma cruzi, Leishmania donovani, Toxoplasma gondii, and Plasmodium falciparum: a potential route to chemotherapy” (J Med Chem, 2001).

For assay [1], the system named is Leishmania donovani. Briefly: Inhibition of L. donovani (Amastigotes) strain MHOM/ET/67/L82 maintained in pathogen free spleen from female golden hamsters; toxic. It counts as functional, organism-based.
Assay [2] deals with Trypanosoma brucei. Briefly: Inhibition of Trypanosoma rhodesiense (strain STIB900) was determined using blood stream from trypomastigotes. It counts as functional, organism-based.
The test system of assay [3] is Trypanosoma cruzi. Briefly: Inhibition of Trypanosoma cruzi Amastigotes was determined in γ-irradiated L6E9 myoblasts culture and fetal calf serum.
Another assay relates to Plasmodium falciparum. Kind of assay: Inhibition of Plasmodium falciparum 3D7 in erythrocytes. It counts as functional, organism-based.
Assay [4] has as its system Leishmania donovani. Briefly: Inhibition of L. donovani (Amastigotes) strain MHOM/ET/67/L82 maintained in female golden hamsters. It counts as functional, organism-based.
Assay [5] has as its system Vero. Kind of assay: Percent infected Vero cells was determined. The format is functional.
In assay [6] the test system is Trypanosoma cruzi. Kind of assay: Effect on proliferation of Trypanosoma cruzi Amastigotes in vero cells at a conc of 150 uM was determined. The format is functional.
In assay [7] the test system is Trypanosoma brucei. Briefly: Compound was evaluated for anti-parasitic activity against Trypanosoma brucei. The format is functional, organism-based.
For a further assay, the system named is Toxoplasma gondii. Briefly: Inhibition of Toxoplasma gondii tachyzoites in human foreskin fibroblast monolayer(DMEM with 10%fetal calf serum). It counts as functional, organism-based.
For assay [8], the system named is Trypanosoma cruzi. Briefly: Effect on inhibition on proliferation of Trypanosoma cruzi Amastigotes in vero cells at a conc of 150 uM. It counts as functional.
The subject of assay [9] is Vero. Kind of assay: Percent infected vero cells was determined. The format is functional.
The subject of assay [10] is Leishmania donovani. Briefly: Inhibition of L. donovani (Amastigotes) strain MHOM/ET/67/L82 maintained in pathogen free spleen from female golden hamsters. The format is functional, organism-based.
Assay [11] relates to Trypanosoma cruzi. Briefly: Inhibition of Trypanosoma cruzi Amastigotes was determined in γ-irradiated L6E9 myoblasts culture and fetal calf serum. This is another data set of the same source.
Assay [12] has as its system Trypanosoma cruzi. Kind of assay: microbe, parasite or virus in culture.
Description: Compound was evaluated for anti-parasitic activity against Trypanosoma cruzi

One may read the IC50 as the midpoint of a concentration-inhibition curve. In the case of `O=P(O)(O)C(O)(Cc1c[nH]cn1)P(=O)(O)O`, the IC50 result was “Toxic” with Leishmania donovani [1], 8.6 µM in the assay with Trypanosoma brucei [2], 35 µM in the assay on Trypanosoma cruzi [3] and more than 200 µM in the assay with Plasmodium falciparum.

Take `CN(C)CCC(O)(P(=O)(O)O)P(=O)(O)O` [OLPADRONIC ACID]: the IC50 in the assay with Leishmania donovani [4] was more than 200 µM; in the assay with Trypanosoma brucei [2], 5.4 µM; in the assay on Trypanosoma cruzi [3] it was more than 200 µM; in the assay on Plasmodium falciparum it was more than 200 µM.

As usually defined, the inhibition is the change of the read-out against control, counted positive when it falls. A higher inhibition goes with a strong effect. With `O=P(O)(O)C(O)(CSc1ccncc1)P(=O)(O)O`, the IC50 is more than 200 µM in the assay with Leishmania donovani [4], 19.8 µM with Trypanosoma brucei [2], more than 200 µM in the assay on Trypanosoma cruzi [3] and 158 µM with Plasmodium falciparum. The molecule further came in with an Infected with Vero [5] of 33%. The same molecule came in with an inhibition at 150 µM in the assay with Trypanosoma cruzi [6] of 0%.

`N=C(N)c1ccc(OCCCCCOc2ccc(C(=N)N)cc2)cc1` [PENTAMIDINE] came in with an IC50 in the assay on Trypanosoma brucei [7] of 0.035 µM.

`Cc1cccnc1NC(P(=O)(O)O)P(=O)(O)O`: the IC50 result in the assay with Leishmania donovani [1] was “Toxic”; with Trypanosoma brucei [2], 0.7 µM; in the assay with Trypanosoma cruzi [3], 147 µM; in the assay with Plasmodium falciparum, more than 200 µM.

With `CCCC(O)(P(=O)(O)O)P(=O)(O)O`, the IC50 in the assay with Toxoplasma gondii was 9.1 µM; in the assay with Leishmania donovani [4], more than 200 µM; with Trypanosoma brucei [2] it was 92 µM; in the assay with Trypanosoma cruzi [3], more than 200 µM; in the assay with Plasmodium falciparum, 130 µM.

With `NCCC(O)(P(=O)(O)O)P(=O)(O)O` [PAMIDRONIC ACID], the IC50 entry in the assay with Leishmania donovani [1] was “Toxic”; in the assay with Toxoplasma gondii (read-out: IC50), 35.6 µM; in the assay on Trypanosoma brucei [2], 177 µM; in the assay on Trypanosoma cruzi [3], 60 µM; in the assay on Plasmodium falciparum, more than 200 µM.

On to `O=P(O)(O)C(O)(Cc1cccnc1)P(=O)(O)O` [RISEDRONIC ACID], for which the IC50 in the assay with Toxoplasma gondii (read-out: IC50) is 0.49 µM; with Leishmania donovani [4], 2.3 µM; in the assay on Trypanosoma brucei [2], 8.6 µM; with Trypanosoma cruzi [3] it was 123 µM; with Plasmodium falciparum, 123 µM. The same molecule yielded an inhibition at 150 µM in the assay on Trypanosoma cruzi [8] of 100%. The molecule further gave an Infected in the assay with Vero [9] of 0%.

Consider `CCCCC(O)(P(=O)(O)O)P(=O)(O)O`, for which the IC50 in the assay with Leishmania donovani [4] was more than 200 µM; in the assay with Trypanosoma brucei [2], 99.8 µM; in the assay on Trypanosoma cruzi [3], more than 200 µM; with Plasmodium falciparum, 56.7 µM.

As to `NCCCCC(O)(P(=O)(O)O)P(=O)(O)O`, the IC50 is more than 200 µM in the assay with Toxoplasma gondii (read-out: IC50); 129 µM in the assay with Leishmania donovani [4]; more than 200 µM with Trypanosoma brucei [2]; more than 200 µM in the assay with Trypanosoma cruzi [3]; more than 200 µM in the assay on Plasmodium falciparum.

Turning to `CC(N)CC(O)(P(=O)(O)O)P(=O)(O)O` (stereo unspecified), the IC50 in the assay with Leishmania donovani [10] is more than 200 µM; in the assay with Trypanosoma brucei [2] it was 7.8 µM; in the assay with Trypanosoma cruzi [3] it was more than 200 µM; in the assay with Plasmodium falciparum, more than 200 µM.

Turning to `Nc1ccc(CC(O)(P(=O)(O)O)P(=O)(O)O)cc1`, the IC50 is 68.2 µM in the assay with Toxoplasma gondii (read-out: IC50); more than 200 µM with Leishmania donovani [4]; 40 µM in the assay with Trypanosoma brucei [2]; more than 200 µM with Trypanosoma cruzi [3]; more than 200 µM in the assay on Plasmodium falciparum.

Turning to `O=P(O)(O)C(O)(Cc1ccncc1)P(=O)(O)O`, the half-inhibitory concentration (IC50) with Toxoplasma gondii (read-out: IC50), with Leishmania donovani [4], with Trypanosoma brucei [2], in the assay with Trypanosoma cruzi [11] and in the assay with Plasmodium falciparum was more than 200 µM each time.

On to `NCCCC(O)(P(=O)(O)O)P(=O)(O)O` [ALENDRONIC ACID], for which the IC50 is 82.5 µM with Leishmania donovani [4], more than 200 µM with Trypanosoma brucei [2], 25 µM in the assay on Trypanosoma cruzi [3] and more than 200 µM with Plasmodium falciparum.

For `NCCCCCC(O)(P(=O)(O)O)P(=O)(O)O` [NERIDRONIC ACID], the IC50 with Leishmania donovani [4] is more than 200 µM; with Trypanosoma brucei [2], 31.7 µM; in the assay on Trypanosoma cruzi [3], more than 200 µM; with Plasmodium falciparum, more than 200 µM.

`O=P(O)(O)C(O)(Cc1ccccn1)P(=O)(O)O`: the IC50 result in the assay on Leishmania donovani [1] was “Toxic”; in the assay on Toxoplasma gondii (read-out: IC50) it was 9.1 µM; with Trypanosoma brucei [2], 0.22 µM; with Trypanosoma cruzi [3], 105 µM; in the assay on Plasmodium falciparum, more than 200 µM.

For the molecule `O=P(O)(O)C(O)(CCc1cccnc1)P(=O)(O)O`, the IC50 in the assay with Toxoplasma gondii (read-out: IC50) is more than 200 µM; in the assay on Leishmania donovani [4], more than 200 µM; in the assay on Trypanosoma brucei [2], 1.7 µM; in the assay with Trypanosoma cruzi [3], more than 200 µM; with Plasmodium falciparum it was more than 200 µM. The inhibition at 150 µM with Trypanosoma cruzi [6] was determined as 81%. The Infected in the assay with Vero [9] is listed as 6%.

For `CCCCCC(O)(P(=O)(O)O)P(=O)(O)O`, the IC50 is more than 200 µM in the assay on Leishmania donovani [4], 62.4 µM with Trypanosoma brucei [2], more than 200 µM in the assay with Trypanosoma cruzi [3] and 5.1 µM with Plasmodium falciparum.

Regarding `CCOP(=O)(OCC)C(Nc1ncccc1C)P(=O)(OCC)OCC`, the 50% inhibitory concentration (IC50) with Leishmania donovani [4] was 82.1 µM; in the assay on Trypanosoma brucei [2], 27.9 µM; in the assay with Trypanosoma cruzi [3], more than 200 µM; in the assay on Plasmodium falciparum, more than 200 µM. Moreover, the Infected with Vero [5] worked out at 9%. Testing at 150 µM with Trypanosoma cruzi [6] gave an inhibition of 69%.

As for `O=C(Cn1ccnc1[N+](=O)[O-])NCc1ccccc1` [BENZNIDAZOLE], in the assay on Trypanosoma cruzi [12], the IC50 worked out at 3.5 µM.

As for `O=P(O)(O)C(O)(Cc1ccccc1)P(=O)(O)O`, the IC50 in the assay with Leishmania donovani [4] was more than 200 µM; in the assay with Trypanosoma brucei [2], 21.3 µM; in the assay with Trypanosoma cruzi [3], more than 200 µM; with Plasmodium falciparum, 7.7 µM. This molecule also displayed an Infected in the assay on Vero [5] of 30%. In the assay on Trypanosoma cruzi [6], this molecule came in with an inhibition at 150 µM of 6%.
